Reference: US8299064B2, “Fused polycyclic compounds having a heterocyclic ring(s) and pharmaceutical use thereof” (priority 2003, dated 2012)

Test system: adipose cells of rats
Assay: Evaluation of the sugar transporting capacity (2-[14C(U)]-deoxy-D-glucose incorporation)
Type: cell-based
Conditions: insulin 100 nM; isolated rat adipose cells
Procedure: After the decapitation and venesection of 6 male Wistar rats (body weight: 150 to 200 g), an incision was made in the abdomen of each rat to extract 6 g in total of epididymal adipose tissues. The tissues were finely cut into 2 mm×2 mm pieces in 6 ml of KRH (Krebs-Ringer Hepes, composition: 130 mM of sodium chloride, 4.7 mM of potassium chloride, 1.2 mM of potassium dihydrogenphosphate, 1.2 mM of magnesium sulfate, 1 mM of calcium chloride and 25 mM of Hepes, pH=7.6) containing 5% of BSA (bovine serum albumin). 24 mg of collagenase (type I) was added thereto and the digestion treatment was conducted for about 40 minutes to obtain about 6 ml of isolated adipose cells. The collagenase was removed by the buffer exchange. 2% BSA/KRH solution was added to the residue for the re-suspension to obtain 45 ml of an adipose cell suspension.
The sugar transporting capacity of the compound of the present invention was evaluated with reference to a method described in a literature [Annual Review of Biochemistry, Vol. 55, p. 1059 (1986)]. […]
The sugar transporting capacity was evaluated by measuring the quantity of 2-[^14C(U)]-deoxy-D-glucose incorporated per a unit time. […] The quantity of 2-[^14C(U)]-deoxy-D-glucose contained in the adipose cell layer was determined with a liquid scintillation counter to determine the quantity of the incorporated sugar. […]

## insulin
  effect of increasing the sugar-transporting capacity versus insulin-free control group: about 7 times
